Results as given in US20100081630A1, “Heparin Compositions and Selectin Inhibition” (University of California, priority 2005, published 2010).

Assays:
[1] = Plasma anti-Xa levels after subcutaneous heparin dosing; assay type: in vivo; conditions: mice
Protocol: Anti-Xa levels were measured in plasma from multiple mice, 30 min after each mouse received a single “1×” or “3×” subcutaneous dose of various heparins. Each open circle represents one mouse and horizontal bars represent mean values.
Titrating Heparin Dosage via Plasma Anti-Xa Levels: Mice were injected subcutaneously with 100 ul of UFH, TINZ, or FOND diluted in PBS, at various final concentrations. Thirty minutes later, blood was collected by cardiac puncture into 1 cc syringe containing 30 ul 10 mM EDTA. Samples were centrifuged twice at 2,000 rcf at 24° C. to collect the plasma, which was stored at −80° C. until analysis for anti-Xa activity. […] The resulting chromophore was measured at 405 nm. Plasma heparin levels were calculated in anti-Xa units/ml by comparing against a standard curve of heparin-spiked mouse plasma samples. Standards and samples were analyzed in triplicate. […]
Pharmacokinetic Studies in Mice to Normalize Heparin Dosing. […] Therapeutic levels for patients treated with heparin for venous thromboembolism are ˜1 anti-factor Xa unit/ml for LMWHs, typically measured at 3-4 hours after injection. […] Plasma anti-Xa levels were analyzed 30 minutes after subcutaneous delivery, which is when the tumor cells would be injected into the vasculature in the planned metastasis experiments. […] Single heparin doses were increased from “1×” to “3×” dosing, and analyzed the anti-Xa levels (FIG. 2B). […]

[2] = tested on: B16F1 cells; experiment: Melanoma experimental metastasis assay; assay type: in vivo, mouse; conditions: 1× dose s.c. 30 min before i.v. B16F1 cells; day 17
Protocol: FIG. 4 depicts heparins with selectin-inhibitory activity that inhibit metastasis of melanoma cells. Mice were injected subcutaneously with “1×” heparin (A) or “3×” heparin (B) (or PBS as a control), and 30 minutes later were injected intravenously with B16F1 cells. After 17 days, mice were euthanized, lungs perfused with formalin through the trachea and then allowed to fix in formalin for a minimum of 24 hours. Metastasis was quantified by measuring lung weight, which correlated well with the physical appearance of the lungs, documented by photography (representative pictures are shown below quantification). Open circles each represent one mouse and horizontal bars represent mean lung weights. P-values were determined by a Student's T-test, assuming two-tailed, unequal distribution.
Melanoma Experimental Metastasis Assay: Mice were injected with heparin and 500,000 B16F1 cells using the protocol described for the carcinoma metastasis assay. […] Lung weights were determined by removing the lungs from formalin, briefly setting them on filter paper to remove excess liquid, and then weighing them on a Sartorius analytical scale.
Heparin Inhibition of Melanoma Metastasis is Also Dependent on Selectin-Inhibitory Activity. […] Seventeen days following injection, the lungs were excised and evaluated for the presence of metastatic foci. […]

[3] = incorporated into liposomes; cited from earlier work
[4] = tested on: tumor cells; conditions: cited from earlier work
[5] = hirudin 10 mg/kg, at the time of tumor cell injection; almost all above limits of detection; cited from earlier work

Compound: CO[C@H]1O[C@H](COS(=O)(=O)O)[C@@H](O[C@@H]2O[C@@H](C(=O)O)[C@@H](O[C@H]3O[C@H](COS(=O)(=O)O)[C@@H](O[C@@H]4O[C@H](C(=O)O)[C@@H](O[C@H]5O[C@H](COS(=O)(=O)O)[C@@H](O)[C@H](O)[C@H]5NS(=O)(=O)O)[C@H](O)[C@H]4O)[C@H](OS(=O)(=O)O)[C@H]3NS(=O)(=O)O)[C@H](O)[C@H]2OS(=O)(=O)O)[C@H](O)[C@H]1NS(=O)(=O)O [FOND, Fondaparinux]
- mean plasma anti-Xa level ([1]; 30 min after single subcutaneous 1× dose, range meant: therapeutic ~1 anti-factor Xa unit/ml): within this range
- plasma anti-Xa level ([1]; 30 min after single subcutaneous 3× dose): at or above the accepted range for clinical anticoagulation
- metastasis (lung weight) [2]: no effect

Compound: CCCCCCCCCCCCCCCC(=O)OCn1ccnc1 [PMI, 1-(palmitoyloxymethyl)imidazole]
- apparent pKa [3]: 5.12

Compound: hirudin
- pulmonary arrest of tumor cells ([4]; hirudin 10 mg/kg twenty minutes prior to tumor cell injection): decreased pulmonary arrest of tumor cells
- formation of metastatic foci ([4]; hirudin 20 mg/kg before, 4 h after, then every other day for 10 days, i.v. tumor cells): significant decrease in formation of metastatic foci
- clotting time in activated partial thromboplastin time test [5]: > 300 s
